Converted amounts (≈) assume the structure as drawn. “And” between values parts separate entries of the source, which are not always exact repeats. Equal entries are not always repeated. Where two headings read alike, the source gives them in different places.
Tests used:
[1] = tested on: Mycobacterium tuberculosis MTB CNCTC My 331/88; assay: In vitro antimycobacterial evaluation; type: cell-based; details: IC90 value
[2] = tested on: Enterococcus sp. J 14365/08; assay: In vitro antibacterial susceptibility testing (broth microdilution); details: read-out: MIC EF
[3] = tested on: methicilin resistant Staphylococcus aureus H 5996/08; assay: as above; details: MRSA, read-out: MIC MRSA
[4] = tested on: Trichophyton mentagrophytes 445; assay: In vitro antifungal susceptibility testing (broth microdilution); type: cell-based; details: M38-A for moulds, IC50 value, read-out: MIC TM
[5] = tested on: Staphylococcus aureus CCM 4516/08; assay: In vitro antibacterial susceptibility testing (broth microdilution); details: read-out: MIC SA
[6] = type: physicochemical; details: for precipitation in the testing medium: antimycobacterial testing medium
Experimental: The discussed amides were tested against three Mycobacteria strains. […] Activities of some benzamides, especially against M. avium and M. kansasii, considerably exceeded the activity of isoniazid (INH) used as an internal standard. The discussed compounds can be divided according to the activities against individual Mycobacteria strains, and structure-activity relationships within Group 1, Group 2 and Group 4 can be discussed.

[7] = tested on: Staphylococcus epidermidis H 6966/08; assay: In vitro antibacterial susceptibility testing (broth microdilution); details: read-out: MIC SE
Candida tropicalis 156 = assay: In vitro antifungal susceptibility testing (broth microdilution); type: cell-based; details: M27-A2 for yeasts, IC80 value
[8] = tested on: Mycobacterium kansasii MK CNCTC My 235/80; assay: In vitro antimycobacterial evaluation; type: cell-based; details: IC90 value
[9] = tested on: photosynthetic electron transport (PET) in spinach chloroplasts; assay: Inhibition of photosynthetic electron transport (PET) in spinach chloroplasts; type: biochemical, Spinacia oleracea L.; details: DCPIP photoreduction
Experimental: Chloroplasts were prepared from spinach (Spinacia oleracea L.) according to Masarovicova and Kralova. The inhibition of photosynthetic electron transport (PET) in spinach chloroplasts was determined spectrophotometrically (Genesys 6, Thermo Scientific, USA), using an artificial electron acceptor 2,6-dichlorophenol-indophenol (DCIPP) according to Kralova et al., and the rate of photosynthetic electron transport was monitored as a photoreduction of DCPIP. The measurements were carried out in phosphate buffer (0.02 mol/L, pH 7.2) containing sucrose (0.4 mol/L), MgCl2 (0.005 mol/L) and NaCl (0.015 mol/L). The chlorophyll content was 30 mg/L in these experiments and the samples were irradiated (~100 W/m^2) from 10 cm distance with a halogen lamp (250 W) using a 4 cm water filter to prevent warming of the samples. The studied compounds were dissolved in DMSO due to their limited water solubility. […] The inhibitory efficiency of the studied compounds was expressed by IC50 values, i.e. by molar concentration of the compounds causing 50% decrease in the oxygen evolution rate relative to the untreated control.

[10] = tested on: Mycobacterium avium MA CNCTC My 330/88; assay: In vitro antimycobacterial evaluation; type: cell-based; details: IC90 value
[11] = Lipophilicity determination by RP-HPLC (capacity factor k / log k); type: physicochemical; details: C18 column, MeOH 70% / H2O 30%, isocratic
Experimental: Hydrophobicities (log P/Clog P) of compounds 8 and 9 were calculated using two commercially available programs (ChemOffice Ultra 10.0 and ACD/LogP) and measured by means of RP-HPLC determination of capacity factors k with subsequent calculation of log k. The procedure was performed under isocratic conditions with methanol as an organic modifier in the mobile phase using an end-capped non-polar C18 stationary RP column. The results are shown in Table 1 and illustrated in Figure 1.
A Waters Alliance 2695 XE HPLC separation module and a Waters Photodiode Array Detector 2996 (Waters Corp., Milford, MA, USA) were used. A Symmetry® C18 5 μm, 4.6 × 250 mm, Part No. WAT054275 (Waters Corp., Milford, MA, USA) chromatographic column was used. The HPLC separation process was monitored by Empower™ 2 Chromatography Data Software, Waters 2009 (Waters Corp., Milford, MA, USA). A mixture of MeOH p.a. (70%) and H2O-HPLC – Mili-Q Grade (30%) was used as a mobile phase. The total flow of the column was 1.0 mL/min, injection volume, 30 μL, column temperature, 30 °C and sample temperature, 10 °C. The detection wavelength of 210 nm was chosen. The KI methanolic solution was used for the dead time (tD) determination. Retention times (tR) were measured in minutes. The capacity factors k were calculated using the Empower™ 2 Chromatography Data Software according to formula k = (tR - tD)/tD, where tR is the retention time of the solute, whereas tD denotes the dead time obtained using an unretained analyte. Log k, calculated from the capacity factor k, is used as the lipophilicity index converted to log P scale.

Row | Compound | MIC ([1]; 14h) [µM] | MIC ([1]; 21h) [µM] | MIC ([2]; SP.J14365/08, 24 h) [µM] | MIC ([2]; SP.J14365/08, 48 h) [µM] | MIC ([3]; 24 h) [µM] | MIC ([3]; 48 h) [µM] | MIC ([4]; 72h) [µM] | MIC ([4]; 120h) [µM] | MIC ([5]; CCM4516, 24 h) [µM] | MIC ([5]; CCM4516, 48 h) [µM] | solubility in comparison with the initial esters [6] | MIC ([7]; H6966/08, 24 h) [µM] | MIC ([7]; H6966/08, 48 h) [µM] | MIC (Candida tropicalis 156; 24h) [µM] | MIC (Candida tropicalis 156; 48h) [µM] | MIC ([8]; 14h) [µM] | MIC ([8]; 21h) [µM] | MIC ([10]; 14h) [µM] | MIC ([10]; 21h) [µM] | log k [11] | other results
1 | O=C(N[C@@H](Cc1ccccc1)C(=O)Nc1ccc(Cl)c(Cl)c1)c1cc(Cl)ccc1O [8q] | 125 (≈ 58 µg/mL) | > 1000 | > 500 | > 500 | > 500 | > 500 | > 125 | > 125 | > 500 | > 500 | lower solubility | > 500 | > 500 | > 125 | > 125 | 250 (≈ 116 µg/mL) | > 1000 | 125 (≈ 58 µg/mL) | > 1000 | 0.9485 | precipitation in the testing medium [6]: precipitated from testing medium; IC50 [9]: 74.2 µM
2 | O=C(N[C@H](Cc1ccccc1)C(=O)Nc1ccc(Cl)c(Cl)c1)c1cc(Cl)ccc1O [8r] | 125 (≈ 58 µg/mL) | > 1000 | > 500 | > 500 | > 500 | > 500 | > 125 | > 125 | > 500 | > 500 | lower solubility | > 500 | > 500 | > 125 | > 125 | 250 (≈ 116 µg/mL) | > 1000 | 125 (≈ 58 µg/mL) | > 1000 | 0.9408 | precipitation in the testing medium [6]: precipitated from testing medium
3 | C[C@H](NC(=O)c1cc(Cl)ccc1O)C(=O)Nc1cccc(Cl)c1 [8b] | 250 (≈ 88.3 µg/mL) | > 500 | > 250 | > 250 | > 250 | > 250 | 125 (≈ 44.2 µg/mL) | 125 (≈ 44.2 µg/mL) | > 250 | > 250 | lower solubility | > 250 | > 250 | > 125 | > 125 | 500 (≈ 177 µg/mL) | > 500 | 500 (≈ 177 µg/mL) | > 500 | 0.41 and 0.4166 | precipitation in the testing medium [6]: precipitation in the testing medium; IC50 [9]: 41.7 µM
4 | CC(C)[C@H](NC(=O)c1ccc(Cl)cc1O)C(=O)Nc1ccc(Cl)cc1 [9c] | 62.5 (≈ 23.8 µg/mL) | 62.5 (≈ 23.8 µg/mL) | > 500 | > 500 | > 500 | > 500 | > 125 | > 125 | > 500 | > 500 | – | > 500 | > 500 | > 125 | > 125 | 62.5 (≈ 23.8 µg/mL) | 62.5 (≈ 23.8 µg/mL) | 62.5 (≈ 23.8 µg/mL) | 125 (≈ 47.7 µg/mL) | 0.6839 | IC50 [9]: 23.8 µM

From article PMC6259751, “Investigating Spectrum of Biological Activity of 4- and 5-Chloro-2-hydroxy-N-[2-(arylamino)-1-alkyl-2-oxoethyl]benzamides” (Molecules, 2011)
